In article PMC5298231, “The Malaria Parasite's Lactate Transporter PfFNT Is the Target of Antiplasmodial Compounds Identified in Whole Cell Phenotypic Screens” (PLoS Pathogens, 2017):
Like-named read-outs stand apart in the source and are kept apart here.

System: erythrocytes infected with 3D7 trophozoites
Assay type: cell-based, Plasmodium falciparum

COc1ccc2c(c1)OC(O)(C(F)(F)C(F)(F)F)CC2=O (stereo not shown) [MMV007839]
Intracellular NADH level, treated vs untreated (6 μM): decreased
Intracellular orotate level, treated vs untreated (6 μM): decreased
Intracellular orotidine-5-phosphate level, treated vs untreated (6 μM): decreased
Intracellular pyruvate level, treated vs untreated (6 μM): significant elevation
Intracellular sn-glycerol-3-phosphate level, treated vs untreated (6 μM): significant elevation
Increase in lactate abundance in treated relative to untreated infected erythrocytes (6 μM, at each time point (1 h, 3 h, 6 h)): 6 fold
1-3 (2-3)-Bisphopshateglycerate, Average (1hr): 0.8283
2-Hydroxyglutarate, Average (1hr): -0.2432
2-Ketoglutarate, Average (1hr): -0.436
3-Phoshoglycerate, Average (1hr): 0.004248
3-Phospho-serine, Average (1hr): -0.2778
4-Aminobutanoate, Average (1hr): 1.193
5-Phosphoribosyl-Pyrophosphate, Average (1hr): 0.3507
6-Phosphogluconate, Average (1hr): -0.04985
ADP, Average (1hr): -0.09347
AMP, Average (1hr): 0.1805
ATLS, Average (1hr): 0.06136
ATP, Average (1hr): -0.05715
Acetyl-CoA, Average (1hr): -0.4647
Acetyl-L-alanine, Average (1hr): 0.1907
Adenine, Average (1hr): -0.6208
Arginine, Average (1hr): 0.574
Asparagine, Average (1hr): 0.04802
Aspartate, Average (1hr): 0.001665
CDP, Average (1hr): -0.01089
CDP-ethanolamine, Average (1hr): 0.2765
CMP, Average (1hr): 0.1684
CTP, Average (1hr): -0.2804
Cholesteryl sulfate, Average (1hr): -0.2972
Citrate, Average (1hr): -0.1229
CoA, Average (1hr): -0.4384
Cyclic AMP, Average (1hr): -0.8135
Cytidine, Average (1hr): -0.7749
DALT, Average (1hr): -0.5028
DEVG, Average (1hr): 0.001555
DGLA, Average (1hr): -0.4525
DLS, Average (1hr): -0.423
Deoxycytidine, Average (1hr): 1.92
Dihydroorotate, Average (1hr): -0.5278
ESFG, Average (1hr): 0.4045
EVGG, Average (1hr): 0.01776
Erythrose 4-Phosphate, Average (1hr): -0.3514
FAD, Average (1hr): -0.08791
FMN, Average (1hr): -0.2425
Farnesyl diphosphate, Average (1hr): -0.0002912
Folate, Average (1hr): -0.2316
Fructose-1-6-Bisphosphate, Average (1hr): 1.122
Fructose-6-Phosphate, Average (1hr): 0.08818
GDP, Average (1hr): -0.6846
GDP-mannose, Average (1hr): 0.01571
GMP, Average (1hr): -1.125
GTP, Average (1hr): -0.5732
Geranylgeranyl pyrophosphate, Average (1hr): -0.5786
Glucono-1-4-Lactone, Average (1hr): 1.593
Glucose-6-Phosphate, Average (1hr): -0.1863
Glutamate, Average (1hr): 0.1005
Glutamine, Average (1hr): 0.7703
Glutathione Disulfide, Average (1hr): 0.1943
Glutathione, Average (1hr): -0.1919
Glyceraldehyde 3-Phosphate, Average (1hr): -0.7606
Glycerone Phosphate, Average (1hr): 0.5926
HLD, Average (1hr): -0.3486
HVDD, Average (1hr): -0.6691
Histidine, Average (1hr): 0.5758
Homoserine, Average (1hr): 0.3097
Hydroxy-L-proline, Average (1hr): 0.2443
Hypoxanthine, Average (1hr): 0.3704
IDP, Average (1hr): -0.1758
IMP, Average (1hr): -0.02277
Inosine, Average (1hr): 0.5137
Isoleucine, Average (1hr): 0.3056
LD, Average (1hr): 0.3825
Lactate, Average (1hr): 2.358
Leucine, Average (1hr): 0.1553
Lysine, Average (1hr): 1.68
Malate, Average (1hr): 0.1358
Mannitol, Average (1hr): 0.0108
Methionine, Average (1hr): 0.2615
Myristic acid, Average (1hr): 0.2261
N-Acetyl-glutamate, Average (1hr): -0.007377
N-Carbamoyl-L-Aspartate, Average (1hr): -1.378
NAD+, Average (1hr): 0.03204
NADH, Average (1hr): -1.36
NADP+, Average (1hr): -0.2617
Ornithine, Average (1hr): 0.2172
Orotate, Average (1hr): -1.216
Orotidine 5-Phosphate, Average (1hr): -1.5
Orotidine, Average (1hr): -0.4366
PAEF, Average (1hr): -0.4364
PD, Average (1hr): 0.2765
PDAV, Average (1hr): 0.344
PE, Average (1hr): 1.21
PEE, Average (1hr): 0.2418
PHF, Average (1hr): 1.069
PPVQ, Average (1hr): 0.02129
PVNF, Average (1hr): -0.3384
PVQ, Average (1hr): 0.8749
PVQA, Average (1hr): -0.7385
Pantothenate, Average (1hr): -0.01312
Phenylalanine, Average (1hr): 0.1979
Phosphoenolpyruvate, Average (1hr): 0.299
Pipecolate, Average (1hr): 0.4539
Proline, Average (1hr): 0.1646
Pyridoxine, Average (1hr): 0.1656
Pyruvate, Average (1hr): 1.42
Ribose-5-Phosphate, Average (1hr): 0.9115
S-Adenosyl-L-homocysteine, Average (1hr): -0.1282
SDGLA, Average (1hr): -0.148
SFGD, Average (1hr): -0.0354
Sedoheptulose-1/7-Phosphate, Average (1hr): 0.1578
Serine, Average (1hr): 0.004434
Succinate Semialdehyde, Average (1hr): -0.3802
Succinate, Average (1hr): 0.4975
TNVK, Average (1hr): -0.9736
Threonine, Average (1hr): 0.4202
Tryptophan, Average (1hr): 0.09509
Tyrosine, Average (1hr): 0.1697
UDP, Average (1hr): -0.1565
UDP-N-acetyl-D-glucosamine, Average (1hr): 0.0845
UDP-glucose, Average (1hr): -0.08513
UMP, Average (1hr): -0.3602
Uracil, Average (1hr): -0.4869
Valine, Average (1hr): 0.1364
Xanthine, Average (1hr): 0.3309
dADP, Average (1hr): -0.3244
dATP, Average (1hr): 0.05147
dCDP, Average (1hr): 0.3024
dGMP, Average (1hr): 0.08489
dTMP, Average (1hr): -0.02247
dTTP, Average (1hr): 0.2046
dUMP, Average (1hr): 1.26
myo-Inositol, Average (1hr): -0.07002
sn-Glycerol 3-Phosphate, Average (1hr): 1.379
sn-glycero-3-Phospho-1-inositol, Average (1hr): -0.128
1-3 (2-3)-Bisphopshateglycerate, Average (3hr): 0.8355
2-Hydroxyglutarate, Average (3hr): -0.6103
2-Ketoglutarate, Average (3hr): -0.8232
3-Phoshoglycerate, Average (3hr): 0.07426
3-Phospho-serine, Average (3hr): -0.4035
4-Aminobutanoate, Average (3hr): 0.8488
5-Phosphoribosyl-Pyrophosphate, Average (3hr): 0.5077
6-Phosphogluconate, Average (3hr): -0.2282
ADP, Average (3hr): -0.7166
AMP, Average (3hr): -0.5704
ATLS, Average (3hr): -0.2347
ATP, Average (3hr): -0.2177
Acetyl-CoA, Average (3hr): -0.7235
Acetyl-L-alanine, Average (3hr): -0.3599
Adenine, Average (3hr): -0.8446
Arginine, Average (3hr): 0.2396
Asparagine, Average (3hr): -0.1753
Aspartate, Average (3hr): -0.3736
CDP, Average (3hr): -0.5752
CDP-ethanolamine, Average (3hr): 0.02366
CMP, Average (3hr): -0.08882
CTP, Average (3hr): -0.3119
Cholesteryl sulfate, Average (3hr): -0.1335
Citrate, Average (3hr): -0.1028
CoA, Average (3hr): -0.556
Cyclic AMP, Average (3hr): -0.7854
Cytidine, Average (3hr): -0.2914
DALT, Average (3hr): -0.8981
DEVG, Average (3hr): -0.08263
DGLA, Average (3hr): -0.7349
DLS, Average (3hr): -0.6175
Deoxycytidine, Average (3hr): 1.594
Dihydroorotate, Average (3hr): -1.064
ESFG, Average (3hr): -0.07747
EVGG, Average (3hr): -0.1694
Erythrose 4-Phosphate, Average (3hr): -0.2579
FAD, Average (3hr): -0.4239
FMN, Average (3hr): -0.4985
Farnesyl diphosphate, Average (3hr): -0.04123
Folate, Average (3hr): -0.3602
Fructose-1-6-Bisphosphate, Average (3hr): 1.146
Fructose-6-Phosphate, Average (3hr): 0.05598
GDP, Average (3hr): -1.202
GDP-mannose, Average (3hr): -0.4414
GMP, Average (3hr): -1.665
GTP, Average (3hr): -0.7051
Geranylgeranyl pyrophosphate, Average (3hr): -0.6827
Glucono-1-4-Lactone, Average (3hr): 1.992
Glucose-6-Phosphate, Average (3hr): -0.3489
Glutamate, Average (3hr): -0.07518
Glutamine, Average (3hr): 0.8027
Glutathione Disulfide, Average (3hr): -0.1266
Glutathione, Average (3hr): -0.02749
Glyceraldehyde 3-Phosphate, Average (3hr): -0.5897
Glycerone Phosphate, Average (3hr): 0.4029
HLD, Average (3hr): -0.9223
HVDD, Average (3hr): -1.392
Histidine, Average (3hr): 0.6908
Homoserine, Average (3hr): 0.249
Hydroxy-L-proline, Average (3hr): 0.1081
Hypoxanthine, Average (3hr): 0.2683
IDP, Average (3hr): 0.1036
IMP, Average (3hr): -0.04113
Inosine, Average (3hr): 0.2492
Isoleucine, Average (3hr): 0.01345
LD, Average (3hr): 0.008648
Lactate, Average (3hr): 2.632
Leucine, Average (3hr): -0.1293
Lysine, Average (3hr): 0.8307
Malate, Average (3hr): -0.2233
Mannitol, Average (3hr): -0.2308
Methionine, Average (3hr): -0.1652
Myristic acid, Average (3hr): -0.3456
N-Acetyl-glutamate, Average (3hr): -0.8123
N-Carbamoyl-L-Aspartate, Average (3hr): -1.502
NAD+, Average (3hr): 0.03216
NADH, Average (3hr): -1.72
